Targets include PLK1 (UniProt P53350); WEE1 (UniProt P30291); TESK1 (UniProt Q15569); UniProt P78527; MAPKAPK3 (UniProt Q16644); UniProt Q9P289.
Holding throughout (assay): pIC50, kinobeads binding competition
What all share (details): cell material: Jurkat lysate

The next experiment addresses T1, UniProt O43318.
T1 sequence (whole entry): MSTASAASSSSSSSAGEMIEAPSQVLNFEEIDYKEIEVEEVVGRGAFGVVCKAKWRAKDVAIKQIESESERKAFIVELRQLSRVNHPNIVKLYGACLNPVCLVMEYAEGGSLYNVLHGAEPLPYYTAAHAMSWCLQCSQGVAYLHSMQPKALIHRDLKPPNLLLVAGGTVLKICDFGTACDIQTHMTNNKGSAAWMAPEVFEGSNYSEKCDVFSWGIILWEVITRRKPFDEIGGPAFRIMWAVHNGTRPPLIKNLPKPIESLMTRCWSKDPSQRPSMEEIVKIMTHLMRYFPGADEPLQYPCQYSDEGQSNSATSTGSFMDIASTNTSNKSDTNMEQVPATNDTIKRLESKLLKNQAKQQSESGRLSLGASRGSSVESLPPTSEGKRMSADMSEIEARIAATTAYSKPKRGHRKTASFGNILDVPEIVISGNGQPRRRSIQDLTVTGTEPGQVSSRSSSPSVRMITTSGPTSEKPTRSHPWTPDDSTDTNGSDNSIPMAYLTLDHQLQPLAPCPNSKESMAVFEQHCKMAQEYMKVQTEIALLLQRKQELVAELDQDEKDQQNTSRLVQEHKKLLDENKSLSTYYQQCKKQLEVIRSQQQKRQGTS

A further experiment concerns the target T2, NEK1 (UniProt Q96PY6).
T2 sequence (whole entry): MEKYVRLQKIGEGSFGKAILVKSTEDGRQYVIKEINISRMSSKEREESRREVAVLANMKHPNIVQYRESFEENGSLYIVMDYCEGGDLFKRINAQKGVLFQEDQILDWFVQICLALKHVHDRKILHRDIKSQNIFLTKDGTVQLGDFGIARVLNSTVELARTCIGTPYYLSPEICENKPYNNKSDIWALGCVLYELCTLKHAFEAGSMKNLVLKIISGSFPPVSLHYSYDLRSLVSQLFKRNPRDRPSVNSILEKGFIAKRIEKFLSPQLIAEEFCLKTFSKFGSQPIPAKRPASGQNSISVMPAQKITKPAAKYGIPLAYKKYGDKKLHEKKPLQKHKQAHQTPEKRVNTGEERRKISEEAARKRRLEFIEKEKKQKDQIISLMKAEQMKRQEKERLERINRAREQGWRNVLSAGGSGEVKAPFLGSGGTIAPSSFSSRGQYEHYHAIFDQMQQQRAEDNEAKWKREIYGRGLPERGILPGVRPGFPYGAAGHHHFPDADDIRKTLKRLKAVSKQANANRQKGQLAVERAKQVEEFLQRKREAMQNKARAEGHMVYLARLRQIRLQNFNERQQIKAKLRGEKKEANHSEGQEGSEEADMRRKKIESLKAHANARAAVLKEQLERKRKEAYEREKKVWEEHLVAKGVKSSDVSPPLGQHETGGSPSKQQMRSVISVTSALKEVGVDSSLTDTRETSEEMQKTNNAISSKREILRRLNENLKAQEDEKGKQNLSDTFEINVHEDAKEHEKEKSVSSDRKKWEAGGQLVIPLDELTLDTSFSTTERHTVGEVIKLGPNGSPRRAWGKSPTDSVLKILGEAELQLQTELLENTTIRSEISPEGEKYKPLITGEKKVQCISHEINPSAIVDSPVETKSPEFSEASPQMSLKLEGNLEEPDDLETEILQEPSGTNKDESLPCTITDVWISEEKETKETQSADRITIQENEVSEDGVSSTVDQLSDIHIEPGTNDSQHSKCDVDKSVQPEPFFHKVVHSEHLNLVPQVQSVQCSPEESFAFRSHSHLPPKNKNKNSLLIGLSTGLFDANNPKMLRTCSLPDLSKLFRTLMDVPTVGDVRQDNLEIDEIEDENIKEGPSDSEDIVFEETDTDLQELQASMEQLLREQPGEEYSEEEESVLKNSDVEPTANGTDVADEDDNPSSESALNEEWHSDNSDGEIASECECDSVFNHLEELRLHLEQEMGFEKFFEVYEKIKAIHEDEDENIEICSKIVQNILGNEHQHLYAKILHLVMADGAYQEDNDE

For the next experiment, the target named is T3, MAP4K3 (UniProt Q8IVH8).
T3 sequence (whole entry): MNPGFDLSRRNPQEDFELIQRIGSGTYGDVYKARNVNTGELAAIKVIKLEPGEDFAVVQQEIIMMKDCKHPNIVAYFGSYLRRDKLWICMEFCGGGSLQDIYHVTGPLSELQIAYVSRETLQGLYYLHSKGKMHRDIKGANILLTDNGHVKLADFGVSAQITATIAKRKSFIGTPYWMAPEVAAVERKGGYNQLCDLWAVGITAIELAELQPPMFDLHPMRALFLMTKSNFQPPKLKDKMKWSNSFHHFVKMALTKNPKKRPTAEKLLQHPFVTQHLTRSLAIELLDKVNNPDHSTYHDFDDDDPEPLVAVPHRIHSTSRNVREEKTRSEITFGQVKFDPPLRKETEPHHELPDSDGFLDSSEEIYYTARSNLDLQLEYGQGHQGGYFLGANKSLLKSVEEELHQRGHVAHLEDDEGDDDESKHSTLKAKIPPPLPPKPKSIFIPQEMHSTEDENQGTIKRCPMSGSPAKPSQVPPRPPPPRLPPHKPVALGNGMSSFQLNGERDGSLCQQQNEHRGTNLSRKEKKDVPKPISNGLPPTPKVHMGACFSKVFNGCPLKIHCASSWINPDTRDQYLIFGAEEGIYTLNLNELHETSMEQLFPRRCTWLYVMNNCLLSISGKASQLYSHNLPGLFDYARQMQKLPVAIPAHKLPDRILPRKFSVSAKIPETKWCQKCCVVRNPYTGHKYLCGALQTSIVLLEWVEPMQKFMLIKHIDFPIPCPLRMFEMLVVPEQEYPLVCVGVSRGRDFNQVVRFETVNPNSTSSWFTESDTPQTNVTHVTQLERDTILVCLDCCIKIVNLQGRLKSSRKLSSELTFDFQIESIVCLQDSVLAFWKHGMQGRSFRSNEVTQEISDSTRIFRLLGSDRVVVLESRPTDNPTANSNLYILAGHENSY

WEE1, sequence (P30291 whole entry, looked up): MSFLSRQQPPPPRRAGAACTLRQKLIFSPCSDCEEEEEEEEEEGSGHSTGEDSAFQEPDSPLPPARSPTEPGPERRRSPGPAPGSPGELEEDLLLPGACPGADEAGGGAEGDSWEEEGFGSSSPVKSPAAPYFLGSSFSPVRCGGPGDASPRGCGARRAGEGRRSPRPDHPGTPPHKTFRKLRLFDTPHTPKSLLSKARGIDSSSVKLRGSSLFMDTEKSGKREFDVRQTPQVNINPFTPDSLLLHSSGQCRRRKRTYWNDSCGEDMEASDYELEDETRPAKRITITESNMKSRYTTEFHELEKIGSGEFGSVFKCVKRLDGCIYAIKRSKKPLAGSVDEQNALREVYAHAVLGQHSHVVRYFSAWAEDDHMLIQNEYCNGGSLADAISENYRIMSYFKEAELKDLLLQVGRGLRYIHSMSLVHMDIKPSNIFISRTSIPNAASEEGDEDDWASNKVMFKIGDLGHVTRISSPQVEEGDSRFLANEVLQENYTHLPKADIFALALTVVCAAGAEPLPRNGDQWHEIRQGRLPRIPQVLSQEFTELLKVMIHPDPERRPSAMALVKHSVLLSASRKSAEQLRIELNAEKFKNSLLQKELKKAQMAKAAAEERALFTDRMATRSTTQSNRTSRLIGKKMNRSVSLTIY
MAPKAPK3, sequence (Q16644 whole entry, looked up): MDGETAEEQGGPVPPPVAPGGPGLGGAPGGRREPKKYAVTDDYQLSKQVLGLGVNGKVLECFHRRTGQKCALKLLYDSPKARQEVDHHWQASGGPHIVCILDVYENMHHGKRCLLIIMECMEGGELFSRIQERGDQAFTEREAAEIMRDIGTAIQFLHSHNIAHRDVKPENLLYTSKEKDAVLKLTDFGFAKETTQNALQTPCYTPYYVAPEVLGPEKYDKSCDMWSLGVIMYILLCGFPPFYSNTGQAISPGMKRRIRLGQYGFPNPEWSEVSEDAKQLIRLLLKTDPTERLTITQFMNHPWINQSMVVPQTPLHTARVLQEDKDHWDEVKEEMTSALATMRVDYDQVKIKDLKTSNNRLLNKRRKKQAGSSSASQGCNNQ
PLK1, sequence (P53350 whole entry): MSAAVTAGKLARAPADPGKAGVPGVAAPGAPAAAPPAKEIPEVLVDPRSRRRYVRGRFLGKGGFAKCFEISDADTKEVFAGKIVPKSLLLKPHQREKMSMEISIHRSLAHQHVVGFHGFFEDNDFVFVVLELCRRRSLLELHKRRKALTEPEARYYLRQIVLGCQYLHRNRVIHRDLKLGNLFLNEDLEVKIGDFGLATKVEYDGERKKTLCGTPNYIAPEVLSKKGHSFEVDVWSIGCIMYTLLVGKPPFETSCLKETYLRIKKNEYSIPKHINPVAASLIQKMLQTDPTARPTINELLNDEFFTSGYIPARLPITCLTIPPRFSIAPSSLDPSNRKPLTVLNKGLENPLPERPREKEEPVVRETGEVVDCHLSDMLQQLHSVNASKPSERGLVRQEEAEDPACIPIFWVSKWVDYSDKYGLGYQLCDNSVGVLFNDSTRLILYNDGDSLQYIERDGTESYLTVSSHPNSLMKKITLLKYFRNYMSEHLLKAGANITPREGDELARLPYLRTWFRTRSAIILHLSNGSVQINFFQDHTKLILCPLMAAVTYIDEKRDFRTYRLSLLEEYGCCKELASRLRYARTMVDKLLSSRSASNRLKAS
UniProt Q9P289, sequence (Q9P289 whole entry, looked up): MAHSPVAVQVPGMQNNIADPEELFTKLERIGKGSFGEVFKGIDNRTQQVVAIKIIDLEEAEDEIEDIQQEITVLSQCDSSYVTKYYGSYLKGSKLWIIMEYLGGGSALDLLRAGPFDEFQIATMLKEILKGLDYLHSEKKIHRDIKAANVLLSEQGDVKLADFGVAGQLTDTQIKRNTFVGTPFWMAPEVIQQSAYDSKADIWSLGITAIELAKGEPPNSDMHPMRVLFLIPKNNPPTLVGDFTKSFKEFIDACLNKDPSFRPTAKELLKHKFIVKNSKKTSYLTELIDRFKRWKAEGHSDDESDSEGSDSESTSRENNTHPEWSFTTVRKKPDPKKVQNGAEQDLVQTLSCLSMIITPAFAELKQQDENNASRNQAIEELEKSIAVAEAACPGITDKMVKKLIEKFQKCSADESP
TESK1, sequence (Q15569 whole entry, looked up): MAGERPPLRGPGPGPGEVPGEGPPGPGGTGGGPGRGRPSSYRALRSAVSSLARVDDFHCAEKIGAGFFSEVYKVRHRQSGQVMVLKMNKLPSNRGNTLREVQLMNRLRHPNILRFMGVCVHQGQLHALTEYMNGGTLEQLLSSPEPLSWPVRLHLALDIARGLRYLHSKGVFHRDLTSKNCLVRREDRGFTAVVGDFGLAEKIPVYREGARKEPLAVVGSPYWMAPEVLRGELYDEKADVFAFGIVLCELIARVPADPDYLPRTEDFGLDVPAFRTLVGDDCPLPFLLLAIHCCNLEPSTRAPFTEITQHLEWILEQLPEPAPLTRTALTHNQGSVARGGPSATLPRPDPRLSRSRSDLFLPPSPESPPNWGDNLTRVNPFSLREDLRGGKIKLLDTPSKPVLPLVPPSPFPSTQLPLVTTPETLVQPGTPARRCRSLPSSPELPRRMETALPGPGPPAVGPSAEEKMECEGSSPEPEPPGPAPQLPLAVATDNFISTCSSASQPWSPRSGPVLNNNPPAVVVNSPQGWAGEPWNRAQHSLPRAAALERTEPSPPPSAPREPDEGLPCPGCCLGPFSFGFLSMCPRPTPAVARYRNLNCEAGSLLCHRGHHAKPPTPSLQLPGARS

Regarding `CCc1cnn2c(NCc3ccc[n+]([O-])c3)cc(N3CCCC[C@H]3CCO)nc12` [dinaciclib], the pIC50 on UniProt O43318, at NEK1, on PLK1, at WEE1, at MAP4K3 and on TESK1 was less than 4.52 each time. In addition, the results for the pIC50 at UniProt P78527, at MAPKAPK3 and on UniProt Q9P289 were less than 4.52, 6.8 and less than 4.52, respectively.

These data come from the supplement of paper PMC12076712.
